# From patent publication US10179125B2, “Substituted pyridines as bromodomain inhibitors” (Zenith Epigenetics Ltd., priority 2014, dated 2019)
# Legend:
# hIL-17 = experiment: Inhibition of hIL-17 mRNA transcription in OKT3-stimulated peripheral blood mononuclear cells; format: cell-based; conditions: human PBMC, OKT3 antibody 6 h, read-out: IL-17 activity
# Experimental: Human peripheral blood mononuclear cells were plated (2.0×10^5 cells per well) in a 96-well plate in 45 μL OpTimizer T Cell expansion media (Life Technologies) containing 20 ng/ml IL-2 and penicillin/streptomycin. The cells were treated with increasing concentrations of the test compound or DMSO (0.1%), and incubated at 37° C., 5% CO2 for 1 h before addition of 10× stock OKT3 antibody at 10 ug/ml in media. Triplicate wells were used for each concentration, Cells were incubated at 37° C., 5% CO2 for 6 h before the cells were harvested. At time of harvest, cells were pelleted by centrifugation at 800 rpm for 5 min. Cells were harvested using the mRNA Catcher PLUS kit according to manufacturer's instructions. The eluted mRNA was then used in a one-step quantitative real-time PCR reaction, using components of the RNA UltraSense™ One-Step Kit (Life Technologies) together with Applied Biosystems TaqMan® primer-probes for hIL-17 and Cyclophilin. Real-time PCR plates were run on a ViiA™ 7 real time PCR machine (Applied Biosystems), data was analyzed, normalizing the Ct values for hIL-17 to an internal control, prior to determining the fold induction of each unknown sample, relative to the control.
# hIL-6 = experiment: Inhibition of hIL-6 mRNA transcription in LPS-stimulated U937 cells; format: cell-based, Human; conditions: Homo sapiens, U-937, PMA-differentiated U937 cells, 1 h pretreatment, LPS 3 h, read-out: IL-6 activity
# Experimental: Human leukemic monocyte lymphoma U937 cells (CRL-1593.2) were plated at a density of 3.2×10^4 cells per well in a 96-well plate in 100 μL RPMI-1640 containing 10% FBS and penicillin/streptomycin, and differentiated into macrophages for 3 days in 60 ng/mL PMA ([…]) at 37° C. in 5% CO2 prior to the addition of compound. The cells were pretreated for 1 h with increasing concentrations of test compound in 0.1% DMSO prior to stimulation with 1 ug/mL lipopolysaccharide from Escherichia coli. Triplicate wells were used for each concentration. The cells were incubated at 37° C., 5% CO2 for 3 h before the cells were harvested. At time of harvest, media was removed and cells were rinsed in 200 μL PBS. Cells were harvested using the mRNA Catcher PLUS kit according to manufacturer's instructions. The eluted mRNA was then used in a one-step quantitative real-time PCR reaction using components of the RNA UltraSense™ One-Step Kit (Life Technologies) together with Applied Biosystems TaqMan® primer-probes for hIL-6 and Cyclophilin. Real-time PCR plates were run on a ViiA™7 real time PCR machine (Applied Biosystems), data was analyzed, normalizing the Ct values for hIL-6 to an internal control, prior to determining the fold expression of each sample, relative to the control.
# Human AML MV-4-11 cells = experiment: Inhibition of cell proliferation in MV4-11 cells (CellTiter Aqueous One); format: cell-based; conditions: 72 h; for IC50: Homo sapiens
# Experimental: MV4-11 cells (CRL-9591) were plated at a density of 5×10^4 cells per well in 96 well flat bottom plates and treated with increasing concentrations of test compound or DMSO (0.1%) in IMDM media containing 10% FBS and penicillin/streptomycin. Triplicate wells were used for each concentration and a well containing only media was used as a control. Plates were incubated at 37° C., 5% CO2 for 72 h before adding 20 μL of the CellTiter Aqueous One Solution (Promega) to each well and incubated at 37° C., 5% CO2 for an additional 3-4 h. The absorbance was read at 490 nm in a spectrophotometer and the percentage of cell titer relative to DMSO-treated cells was calculated after correcting for background by subtracting the blank well's signal. IC50 values were calculated using the GraphPad Prism software.
# cMYC = experiment: Inhibition of cMYC expression in MV4-11 cells (real-time PCR); format: cell-based, Human; conditions: 3 h, cMYC mRNA; for IC50: Homo sapiens, read-out: c-myc activity
# Experimental: MV4-11 cells (CRL-9591) were plated at a density of 2.5×10^4 cells per well in 96 well U-bottom plates and treated with increasing concentrations of test compound or DMSO (0.1%) in IMDM media containing 10% FBS and penicillin/streptomycin, and incubated for 3 h at 37° C. Triplicate wells were used for each concentration. Cells were pelleted by centrifugation and harvested using the mRNA Catcher PLUS kit according to manufacturer's instructions. The eluted mRNA isolated was then used in a one-step quantitative real-time PCR reaction, using components of the RNA UltraSense™ One-Step Kit (Life Technologies) together with Applied Biosystems TaqMan® primer-probes for cMYC and Cyclophilin, Real-time PCR plates were run on a ViiA™7 real time PCR machine (Applied Biosystems), data was analyzed, normalizing the Ct values for cMYC to an internal control, prior to determining the fold expression of each sample, relative to the control.
# [1] = target: T1, Brd4 bromodomain 1 (BRD4(1)) (Homo sapiens, UniProt O60885); experiment: Inhibition of tetra-acetylated histone H4 binding to BET bromodomain (HTRF/FRET); conditions: His-tagged bromodomain 200 nM, biotinylated tetra-acetylated histone H4 peptide, 2 h room temperature
# T1 construct: made in house; host or cells: E. coli BL21(DE3)
# Experimental: Proteins were cloned and overexpressed with a N-terminal 6×His tag, then purified by nickel affinity followed by size exclusion chromatography. Briefly, E. coli BL21(DE3) cells were transformed with a recombinant expression vector encoding N-terminally Nickel affinity tagged bromodomains from Brd2, Brd3, Brd4. Cell cultures were incubated at 37° C. with shaking to the appropriate density and induced overnight with IPTG. The supernatant of lysed cells was loaded onto Ni-IDA column for purification, Eluted protein was pooled, concentrated and further purified by size exclusion chromatography. Fractions representing monomeric protein were pooled, concentrated, aliquoted, and frozen at −80° C. for use in subsequent experiments.
# Binding of tetra-acetylated histone H4 and BET bromodomains was confirmed by a Homogenous Time Resolved Fluorescence Resonance Energy Transfer (HTRF®) method, N-terminally His-tagged bromodomains (200 nM) and biotinylated tetra-acetylated histone H4 peptide (25-50 nM, Millipore) were incubated in the presence of Europium Cryptate-labeled streptavidin (Cisbio Cat, #610SAKLB) and XL665-labeled monoclonal anti-His antibody (Cisbio Cat.1461HISXLB) in a white 96 well microtiter plate (Greiner). For inhibition assays, serially diluted test compound was added to these reactions in a 0.2% final concentration of DMSO. Duplicate wells were used for each concentration tested. Final buffer concentrations were 30 mM HEPES pH 7.4, 30 mM NaCl, 0.3 mM CHAPS, 20 mM phosphate pH 7.0, 320 mM KF, 0.08% BSA. After a 2 h incubation at room temperature, fluorescence was measured at 665 and 620 nm with a SynergyH4 plate reader (Biotek). The binding inhibitory activity was shown by a decrease in […] relative to 620 nm fluorescence. IC50 values were determined from a dose response curve.
IC50 (hIL-17) [nM],IC50 (hIL-6) [nM],IC50 (Human AML MV-4-11 cells) [nM],IC50 (cMYC) [nM],IC50 [1] [nM],Compound,Cell Proliferation activity (Human AML MV-4-11 cells),c-myc activity (cMYC)
300 to 3000,300 to 3000,3000 to 30000,300 to 3000,≤ 300,"COc1ncc(-c2c(C)noc2C)cc1NCc1ccc(F)cc1 [Example 6, 5-(3,5-dimethylisoxazol-4-yl)-N-(4-fluorobenzyl)-2-methoxypyridin-3-amine]",–,–
3000 to 30000,300 to 3000,3000 to 30000,300 to 3000,≤ 300,"COc1ncc(-c2c(C)noc2C)cc1OCc1ccccc1 [Example 10, 4-(5-(benzyloxy)-6-methoxypyridin-3-yl)-3,5-dimethylisoxazole]",–,–
300 to 3000,3000 to 30000,3000 to 30000,–,≤ 300,"COc1ncc(-c2c(C)noc2C)cc1NCc1ccc(Cl)cc1 [Example 14, N-(4-chlorobenzyl)-5-(3,5-dimethylisoxazol-4-yl)-2-methoxypyridin-3-amine]",–,–
–,300 to 3000,3000 to 30000,300 to 3000,≤ 300,"CNc1ncc(-c2c(C)noc2C)cc1NCc1ccc(C#N)s1 [Example 54, 5-(((5-(3,5-dimethylisoxazol-4-yl)-2-(methylamino)pyridin-3-yl)amino)methyl)thiophene-2-carbonitrile]",–,–
–,300 to 3000,300 to 3000,300 to 3000,≤ 300,"CNc1ncc(-c2c(C)noc2C)cc1NCc1ccccn1 [Example 55, 5-(3,5-dimethylisoxazol-4-yl)-N2-methyl-N3-(pyridin-2-ylmethyl)pyridine-2,3-diamine]",–,–
–,300 to 3000,300 to 3000,300 to 3000,≤ 300,"CNc1ncc(-c2c(C)noc2C)cc1NCc1nccs1 [Example 56, 5-(3,5-dimethylisoxazol-4-yl)-N2-methyl-N3-(thiazol-2-ylmethyl)pyridine-2,3-diamine]",–,–
–,300 to 3000,3000 to 30000,300 to 3000,≤ 300,"COc1ncc(-c2c(C)noc2C)cc1NCc1nc2ccccc2s1 [Example 57, N-(benzo[d]thiazol-2-ylmethyl)-5-(3,5-dimethylisoxazol-4-yl)-2-methoxypyridin-3-amine]",–,–
–,300 to 3000,300 to 3000,300 to 3000,≤ 300,"COc1ncc(-c2c(C)noc2C)cc1NCc1cccc2ncccc12 [Example 58, 5-(3,5-dimethylisoxazol-4-yl)-2-methoxy-N-(quinolin-5-ylmethyl)pyridin-3-amine]",–,–
–,300 to 3000,3000 to 30000,300 to 3000,≤ 300,"COc1ncc(-c2c(C)noc2C)cc1Nc1cccnc1C [Example 59, 5-(3,5-dimethylisoxazol-4-yl)-2-methoxy-N-(2-methylpyridin-3-yl)pyridin-3-amine]",–,–
–,≤ 300,300 to 3000,≤ 300,≤ 300,"COc1ncc(-c2c(C)noc2C)cc1Nc1c(C)nn(C)c1C [Example 60, 5-(3,5-dimethylisoxazol-4-yl)-2-methoxy-N-(1,3,5-trimethyl-1H-pyrazol-4-yl)pyridin-3-amine]",–,–
–,3000 to 30000,–,–,≤ 300,"COc1ncc(-c2c(C)noc2C)cc1Nc1cc(C#N)ccc1C [Example 61, 3-((5-(3,5-dimethylisoxazol-4-yl)-2-methoxypyridin-3-yl)amino)-4-methylbenzonitrile]",Not Active,Not Active
–,300 to 3000,3000 to 30000,300 to 3000,≤ 300,"COc1ncc(-c2c(C)noc2C)cc1Nc1cc(C(N)=O)ccc1C [Example 62, 3-((5-(3,5-dimethylisoxazol-4-yl)-2-methoxypyridin-3-yl)amino)-4-methylbenzamide]",–,–
–,300 to 3000,300 to 3000,300 to 3000,≤ 300,"COc1ncc(-c2c(C)noc2C)cc1Nc1cn(C)nc1C [Example 63, N-(1,3-dimethyl-1H-pyrazol-4-yl)-5-(3,5-dimethylisoxazol-4-yl)-2-methoxypyridin-3-amine]",–,–
–,300 to 3000,3000 to 30000,300 to 3000,300 to 3000,"CNc1ncc(-c2c(C)noc2C)cc1Nc1cc(C#N)ccc1C [Example 64, 3-((5-(3,5-dimethylisoxazol-4-yl)-2-(methylamino)pyridin-3-yl)amino)-4-methylbenzonitrile]",–,–
–,300 to 3000,3000 to 30000,3000 to 30000,300 to 3000,"COc1ncc(-c2c(C)noc2C)cc1Oc1cc(C#N)ccc1C [Example 65, 3-((5-(3,5-dimethylisoxazol-4-yl)-2-methoxypyridin-3-yl)oxy)-4-methylbenzonitrile]",–,–
–,300 to 3000,3000 to 30000,3000 to 30000,300 to 3000,"COc1ncc(-c2c(C)noc2C)cc1Oc1cccnc1C [Example 66, 4-(6-methoxy-5-((2-methylpyridin-3-yl)oxy)pyridin-3-yl)-3,5-dimethylisoxazole]",–,–
–,300 to 3000,3000 to 30000,300 to 3000,≤ 300,"COc1ncc(-c2c(C)noc2C)cc1Oc1cc(C(N)=O)ccc1C [Example 67, 3-((5-(3,5-dimethylisoxazol-4-yl)-2-methoxypyridin-3-yl)oxy)-4-methylbenzamide]",–,–
–,300 to 3000,300 to 3000,300 to 3000,≤ 300,"CNc1ncc(-c2c(C)noc2C)cc1NCc1ccsc1 [Example 68, 5-(3,5-dimethylisoxazol-4-yl)-N2-methyl-N3-(thiophen-3-ylmethyl)pyridine-2,3-diamine]",–,–
